Results published in patent US6479506B1 (dated 2002).

SMILES	melting point [°C]
COC(=O)c1cc2nnn(-c3ccccc3)c2nc1OCc1ncnn1C	188 to 190
Cn1ncnc1COc1nc2c(cc1-c1ccco1)nnn2-c1ccccc1F	170 to 173
Cn1ncnc1COc1nc2c(cc1-c1ccoc1)nnn2-c1ccccc1F	145 to 146
Cn1ncnc1COc1nc2c(cc1-c1cccc(F)c1)nnn2-c1c(F)cccc1F	137 to 140
Cn1ncnc1COc1nc2c(cc1-c1ccoc1)nnn2-c1c(F)cccc1F	166 to 169
Cn1ncnc1COc1nc2c(cc1C(C)(C)C)nnn2-c1ccccc1	165 to 167
Cn1ncnc1COc1nc2c(cc1C(C)(C)C)nnn2-c1ccccc1F	115 to 117
CCn1ncnc1COc1nc2c(cc1C(C)(C)C)nnn2-c1cc(F)ccc1F	148 to 150
Cn1ncnc1COc1nc2c(cc1-c1ccccc1)nnn2-c1ccccc1F	144 to 146
COc1cccc(F)c1-n1nnc2cc(C(C)(C)C)c(OCc3ncnn3C)nc21	116 to 118
CCn1ncnc1COc1nc2c(nnn2-c2ccccc2)c2ccccc12	192 to 195
Cn1cnc(COc2nc3c(nnn3-c3ccccc3)c3ccccc23)n1	189 to 190
c1ccc(-n2nnc3c4ccccc4c(OCc4ccccn4)nc32)cc1	147 to 150
Cn1ncnc1COc1nc2c(cc1CC(C)(C)C)nnn2-c1ccccc1F	130 to 133
Cn1ncnc1COc1nc2c(cc1C1CCC1)nnn2-c1ccccc1F	120 to 122

Now from value to molecule:

melting point [°C]	SMILES
142 to 145	Cn1ncnc1COc1nc2c(cc1-c1ccc(F)cc1)nnn2-c1ccccc1F
174 to 176	Cn1cnc(COc2nc3c(cc2-c2ccsc2)nnn3-c2ccccc2F)n1
179 to 181	Cn1cnc(COc2nc3c(cc2-c2cccs2)nnn3-c2ccccc2F)n1
179 to 180	Cn1cnc(COc2nc3c(cc2C(C)(C)C)nnn3-c2ccccc2)n1
127 to 129	CCCn1ncnc1COc1nc2c(cc1C(C)(C)C)nnn2-c1ccccc1F
127 to 129	Cn1cnc(COc2nc3c(cc2C(C)(C)C)nnn3-c2ccccc2F)n1
105 to 108	Cn1ncnc1COc1nc2c(cc1C(C)(C)C)nnn2-c1c(F)cccc1F
188 to 190	Cn1ncnc1COc1nc2c(nnn2-c2ccccc2)c2ccccc12
154 to 156	CCCn1ncnc1COc1nc2c(nnn2-c2ccccc2)c2ccccc12
133 to 135	Cn1ncnc1COc1nc2c(cc1-c1ccsc1)nnn2-c1ccccc1F
140 to 144	Cn1ncnc1COc1nc2c(cc1C1CCC1)nnn2-c1c(F)cccc1F (hydrate or solvate)
